Data set [1] addresses T1, MjFH (class-I fumarate hydratase, α + β subunits) (Methanocaldococcus jannaschii, UniProt Q58034+Q58690).
T1 sequence (Q58690 1-285): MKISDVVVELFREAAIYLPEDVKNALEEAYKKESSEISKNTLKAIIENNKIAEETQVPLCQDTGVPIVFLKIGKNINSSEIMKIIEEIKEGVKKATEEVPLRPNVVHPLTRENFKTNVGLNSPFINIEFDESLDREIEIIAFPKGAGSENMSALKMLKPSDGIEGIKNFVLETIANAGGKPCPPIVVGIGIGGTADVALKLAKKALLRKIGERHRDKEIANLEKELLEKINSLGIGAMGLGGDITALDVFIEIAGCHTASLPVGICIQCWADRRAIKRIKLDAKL
T1 sequence (Q58034 1-195): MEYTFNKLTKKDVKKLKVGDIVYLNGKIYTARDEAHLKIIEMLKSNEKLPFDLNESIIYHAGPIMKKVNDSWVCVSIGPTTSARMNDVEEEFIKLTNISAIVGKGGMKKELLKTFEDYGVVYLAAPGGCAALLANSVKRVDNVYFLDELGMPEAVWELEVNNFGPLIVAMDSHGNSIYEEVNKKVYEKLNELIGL
The data set is described as follows: fumarate formation at […] nm, inhibition kinetics. The format is biochemical.

The target of data set [2] is T2, EcL-TTD (L-tartrate dehydratase, L-TTDα + L-TTDβ) (Escherichia coli, UniProt P05847+P0AC35).
T2 sequence (P05847 1-303): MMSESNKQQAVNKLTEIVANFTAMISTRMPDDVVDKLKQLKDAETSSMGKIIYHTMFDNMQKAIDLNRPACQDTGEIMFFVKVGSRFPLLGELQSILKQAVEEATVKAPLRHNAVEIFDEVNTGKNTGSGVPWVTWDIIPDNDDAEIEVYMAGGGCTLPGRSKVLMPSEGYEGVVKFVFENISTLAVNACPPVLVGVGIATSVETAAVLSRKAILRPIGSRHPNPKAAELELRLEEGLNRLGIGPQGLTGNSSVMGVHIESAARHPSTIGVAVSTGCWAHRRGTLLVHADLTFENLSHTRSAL
T2 sequence (P0AC35 1-201): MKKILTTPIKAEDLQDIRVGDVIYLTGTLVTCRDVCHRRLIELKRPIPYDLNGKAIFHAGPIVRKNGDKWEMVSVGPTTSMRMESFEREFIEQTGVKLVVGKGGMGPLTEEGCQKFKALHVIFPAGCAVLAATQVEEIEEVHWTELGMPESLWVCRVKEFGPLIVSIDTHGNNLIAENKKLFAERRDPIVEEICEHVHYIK
The data set is described as follows: coupled malate dehydrogenase/NADH assay at […] nm, inhibition kinetics. The format is biochemical.

Substrate in the data set “purified protein”: O=C(O)C(O)C(O)C(=O)O
As to the kind of experiment: purified protein. Conditions: 50 mM Tris-HCl pH 7.4, 37 °C, 250 μM NADH, Fe-S reconstituted. The data set is classed as biochemical, Escherichia coli.

As a reminder, the Ki is a dissociation constant, usually derived from enzyme kinetics or from competition with a known ligand. For the molecule `O=C(O)C(O)C(O)C(=O)O` (stereo not drawn) [meso-tartrate], the Ki in data set [1] came to 161 ± 17 µM; in data set [2], 149 ± 14 µM. Turning to `O=C(O)C[C@H](O)C(=O)O` [S-malate], in data set [2], the Ki is 261 ± 29 µM.

B1: EcL-TTD (L-tartrate dehydratase, L-TTDα + L-TTDβ) (Escherichia coli K-12) (protein)
chain 1: MMSESNKQQAVNKLTEIVANFTAMISTRMPDDVVDKLKQLKDAETSSMGKIIYHTMFDNMQKAIDLNRPACQDTGEIMFFVKVGSRFPLLGELQSILKQAVEEATVKAPLRHNAVEIFDEVNTGKNTGSGVPWVTWDIIPDNDDAEIEVYMAGGGCTLPGRSKVLMPSEGYEGVVKFVFENISTLAVNACPPVLVGVGIATSVETAAVLSRKAILRPIGSRHPNPKAAELELRLEEGLNRLGIGPQGLTGNSSVMGVHIESAARHPSTIGVAVSTGCWAHRRGTLLVHADLTFENLSHTRSAL
chain 2: MKKILTTPIKAEDLQDIRVGDVIYLTGTLVTCRDVCHRRLIELKRPIPYDLNGKAIFHAGPIVRKNGDKWEMVSVGPTTSMRMESFEREFIEQTGVKLVVGKGGMGPLTEEGCQKFKALHVIFPAGCAVLAATQVEEIEEVHWTELGMPESLWVCRVKEFGPLIVSIDTHGNNLIAENKKLFAERRDPIVEEICEHVHYIK
For orientation: Km means the substrate concentration at which the rate is half of its maximum. As for B1, the Km in the data set “purified protein” is 190 ± 30 µM.
